Results published in article PMC9516332 (Frontiers in Oncology, 2022).
Like-named read-outs stand apart in the source and are kept apart here.

Legend:
Experiment in all cases: Kinase panel profiling at 1 µmol/L (MSA or IMAP), percentage inhibition
Assay type in all cases: biochemical
[1] = target: panel of 255 wild-type kinases (Homo sapiens, UniProt P54646); details: AMPKα2/β1/γ1 kinase assay; 1 µmol/L single concentration; read-out: %-inhibition AMPKα2/β1/γ1
[2] = target: panel of 255 wild-type kinases (Homo sapiens, UniProt O96013); details: PAK4; 1 µmol/L single concentration; read-out: %-inhibition, PAK4
[3] = target: panel of 255 wild-type kinases (Homo sapiens, UniProt P00533); details: kinase EGFR; 1 µmol/L single concentration; read-out: %-inhibition at 1 µmol/L, EGFR
[4] = target: panel of 255 wild-type kinases (Homo sapiens, UniProt Q13164); details: kinase Erk5; 1 µmol/L single concentration; read-out: %-inhibition at 1 µmol/L, Erk5
[5] = target: T1, panel of 255 wild-type kinases (Homo sapiens, UniProt Q96PN8); details: kinase TSSK3; 1 µmol/L single concentration; read-out: %-inhibition at 1 µmol/L, TSSK3
T1 sequence (Q96PN8 1-268): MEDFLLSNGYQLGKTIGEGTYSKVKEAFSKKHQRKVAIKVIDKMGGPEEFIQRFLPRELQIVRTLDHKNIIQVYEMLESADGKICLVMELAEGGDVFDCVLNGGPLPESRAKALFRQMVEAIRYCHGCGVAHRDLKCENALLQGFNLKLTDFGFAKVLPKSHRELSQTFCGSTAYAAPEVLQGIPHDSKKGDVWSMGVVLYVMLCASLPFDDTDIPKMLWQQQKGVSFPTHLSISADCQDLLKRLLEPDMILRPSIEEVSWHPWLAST

[6] = target: panel of 255 wild-type kinases (Homo sapiens, UniProt O96017); details: CHK2 kinase assay; 1 µmol/L single concentration; read-out: %-inhibition CHK2
[7] = target: panel of 255 wild-type kinases (Homo sapiens, UniProt Q96SB4); details: kinase SRPK1; 1 µmol/L single concentration; read-out: %-inhibition at 1 µmol/L, SRPK1
[8] = target: panel of 255 wild-type kinases (Homo sapiens, UniProt P11362); details: kinase FGFR1; 1 µmol/L single concentration; read-out: %-inhibition at 1 µmol/L, FGFR1
[9] = target: panel of 255 wild-type kinases (Homo sapiens, UniProt O75676); details: MSK2; 1 µmol/L single concentration; read-out: %-inhibition, MSK2
[10] = target: panel of 255 wild-type kinases (Homo sapiens, UniProt Q9Y463); details: kinase DYRK1B; 1 µmol/L single concentration; read-out: %-inhibition at 1 µmol/L, DYRK1B
[11] = target: panel of 255 wild-type kinases (Homo sapiens, UniProt P16234); details: kinase PDGFRα; 1 µmol/L single concentration; read-out: %-inhibition at 1 µmol/L, PDGFRα
[12] = target: panel of 255 wild-type kinases (Homo sapiens, UniProt P27448); details: MARK3; 1 µmol/L single concentration; read-out: %-inhibition, MARK3
[13] = target: panel of 255 wild-type kinases (Homo sapiens, UniProt Q16816); details: kinase PHKG1; 1 µmol/L single concentration; read-out: %-inhibition at 1 µmol/L, PHKG1
[14] = target: panel of 255 wild-type kinases (Homo sapiens, UniProt Q13555); details: CaMK2γ kinase assay; 1 µmol/L single concentration; read-out: %-inhibition CaMK2γ
[15] = target: panel of 255 wild-type kinases (Homo sapiens, UniProt P24941); details: 1 µmol/L single concentration
[16] = target: panel of 255 wild-type kinases (Homo sapiens, UniProt Q9Y2H1); details: NDR2; 1 µmol/L single concentration; read-out: %-inhibition, NDR2
[17] = target: panel of 255 wild-type kinases (Homo sapiens, UniProt P49840); details: kinase GSK3α; 1 µmol/L single concentration; read-out: %-inhibition at 1 µmol/L, GSK3α
[18] = target: panel of 255 wild-type kinases (Homo sapiens, UniProt Q13557); details: CaMK2δ kinase assay; 1 µmol/L single concentration; read-out: %-inhibition CaMK2δ
[19] = target: panel of 255 wild-type kinases (Homo sapiens, UniProt Q02763); details: kinase TIE2; 1 µmol/L single concentration; read-out: %-inhibition at 1 µmol/L, TIE2
[20] = target: panel of 255 wild-type kinases (Homo sapiens, UniProt P42685); details: kinase FRK; 1 µmol/L single concentration; read-out: %-inhibition at 1 µmol/L, FRK
[21] = CDK2/CycA2 kinase assay, read-out: %-inhibition CDK2/CycA2
[22] = CDK2/CycE1 kinase assay, read-out: %-inhibition CDK2/CycE1

| Compound | inhibition at 1 µM [1] [%] | inhibition at 1 µM [2] [%] | inhibition at 1 µM [3] [%] | inhibition at 1 µM [4] [%] | inhibition at 1 µM [5] [%] | inhibition at 1 µM [6] [%] | inhibition at 1 µM [7] [%] | inhibition at 1 µM [8] [%] | inhibition at 1 µM [9] [%] | inhibition at 1 µM [10] [%] | inhibition at 1 µM [12] [%] | inhibition at 1 µM [13] [%] | inhibition at 1 µM [14] [%] | inhibition at 1 µM [15, 21] [%] | inhibition at 1 µM [15, 22] [%] | inhibition at 1 µM [16] [%] | inhibition at 1 µM [17] [%] | inhibition at 1 µM [18] [%] | inhibition at 1 µM [19] [%] | inhibition at 1 µM [20] [%] | further results |
| --- | --- | --- | --- | --- | --- | --- | --- | --- | --- | --- | --- | --- | --- | --- | --- | --- | --- | --- | --- | --- | --- |
| C[C@H](Nc1ncnc2nc[nH]c12)c1cc2cccc(Cl)c2c(=O)n1-c1ccccc1 [duvelisib] | -0.155 | 0.277 | 6 | -0.634 | 3 | -3.49 | 4 | -0.103 | -1.39 | -0.692 | 12 | -1.8 | 0.463 | -0.854 | -11 | -0.151 | -1.9 | 4 | -0.0949 | -2.26 | inhibition at 1 µM [11]: 2% |
| COC(=O)N[C@@H](C)CNc1nccc(-c2cn(C(C)C)nc2-c2cc(Cl)cc(NS(C)(=O)=O)c2F)n1 [encorafenib] | 0.723 | -2.13 | 9 | 9 | 4 | 7 | -5 | 4.27 | -4 | -3.42 | 8 | 3 | -3.25 | 5.57 | -9 | 5 | 55 | -2.79 | 6 | 8 | inhibition at 1 µM [11]: 4% |
| CCN1C(=O)N(c2c(F)c(OC)cc(OC)c2F)Cc2cnc3[nH]c(CN4CCOCC4)cc3c21 [pemigatinib] | -5 | -1.88 | -2 | 97 | -0.468 | 3 | -12 |  | -3.61 | 6 | 56 | 6 | 5 | 3.55 | 7 | -1.83 | -5.3 | 11 | 28 | 10 | inhibition at 1 µM [11]: 69% |
| CCn1c(=O)c(-c2cc(NC(=O)Nc3ccccc3)c(F)cc2Br)cc2cnc(NC)cc21 [ripretinib] | -22 | 0.34 | 10 | 0.452 | -0.0717 | 6 | -13 | 92 | 3 | -2.38 | 1.78 | 1.76 | 0.397 | -11 | -12 | 2.69 | -0.0405 | 0.353 | 79 | 87 |  |
